These results are taken from patent publication US20240300936A1 (priority 2021, published 2024).

Structures can show the parent of a compound that is named as a salt.

One assay concerns HELA cells. Put plainly: HELA cell proliferation assay (CellTitre-Glo, 6 days). In kind it is cell-based. Particulars: Homo sapiens, 144 h; HELA cells, 6 days treatment, CellTitre-Glo; read-out: HeLa pIC50 (converted).
Turning to `Nc1nc(NC2COc3cccc(F)c32)nc(-c2ccc3cn[nH]c3c2)n1` (stereo not drawn) [Example 5, N2-(4-fluoro-2,3-dihydrobenzofuran-3-yl)-6-(1H-indazol-6-yl)-1,3,5-triazine-2,4-diamine], the IC50 is 3.39e-06 M.

Turning to `Nc1nc(NC2(c3ccccn3)CC2)nc(-c2ccc3cn[nH]c3c2)n1` [Example 6, 6-(1H-indazol-6-yl)-N2-[1-(2-pyridyl)cyclopropyl]-1,3,5-triazine-2,4-diamine], the IC50 was 5.89e-07 M. The same measure, in the same setting: as for `Nc1nc(NCc2cccc(C(F)(F)F)n2)nc(-c2ccc3cn[nH]c3c2)n1` [Example 8, 6-(1H-indazol-6-yl)-N2-[[6-(trifluoromethyl)-2-pyridyl]methyl]-1,3,5-triazine-2,4-diamine], the figure is 9.33e-07 M. On the same count and under the same terms, as for `Nc1nc(NC2(c3ccn(C(F)F)n3)CC2)nc(-c2ccc3cn[nH]c3c2)n1` [Example 22, N2-[1-[1-(Difluoromethyl)pyrazol-3-yl]cyclopropyl]-6-(1H-indazol-6-yl)-1,3,5-triazine-2,4-diamine], the figure is 1.35e-07 M; as for `Nc1nc(NC2(c3cccc(F)c3F)CC2)nc(-c2ccc3cn[nH]c3c2)n1` [Example 23, N2-[1-(2,3-Difluorophenyl)cyclopropyl]-6-(1H-indazol-6-yl)-1,3,5-triazine-2,4-diamine], 2.24e-07 M; as for `Nc1nc(NCc2cccc(F)c2Cl)nc(-c2ccc3cn[nH]c3c2)n1` [Example 24, N2-[(2-chloro-3-fluoro-phenyl)methyl]-6-(1H-indazol-6-yl)-1,3,5-triazine-2,4-dia mine], 2.88e-07 M.

As for `CC(C)(Nc1nc(N)nc(-c2ccc3cn[nH]c3c2)n1)c1cccc(F)c1F` [Example 28, N2-[1-(2,3-difluorophenyl)-1-methyl-ethyl]-6-(1H-indazol-6-yl)-1,3,5-triazine-2,4-di amine], the IC50 is 1.91e-07 M.

`Nc1nc(NCc2cccc(F)c2F)nc(-c2ccc3cncn3c2)n1` [Example 30, N4-[(2,3-Difluorophenyl)methyl]-6-imidazo[1,5-a]pyridin-6-yl-1,3,5-triazine-2,4-dia mine]: the IC50 is 1.55e-07 M. Still for that read-out and setting: as for `Cn1ncc2ccc(-c3nc(N)nc(NC4(c5ccn(C(F)F)n5)CC4)n3)cc21` [Example 32, N4-[1-[1-(Difluoromethyl)pyrazol-3-yl]cyclopropyl]-6-(1-methylindazol-6-yl)-1,3,5-triazine-2,4-diamine], the figure is 1.29e-06 M. The same measure, in the same setting: as for `CN(c1nc(N)nc(-c2ccc3cncn3c2)n1)C(C)(C)c1ccn(C(F)F)n1` [Example 34, N4-[1-[1-(difluoromethyl)pyrazol-3-yl]-1-methyl-ethyl]-6-imidazo[1,5-a]pyridin-6-yl-N4-methyl-1,3,5-triazine-2,4-diamine], the figure is 7.76e-07 M; as for `Nc1nc(NC2(c3ccn(C(F)F)n3)CC2)nc(-c2ccc3cncn3c2)n1` [Example 35, N4-[1-[1-(Difluoromethyl)pyrazol-3-yl]cyclopropyl]-6-imidazo[1,5-a]pyridin-6-yl-1,3,5-triazine-2,4-diamine], 1.48e-07 M. Consider `CC(C)(Nc1nc(N)nc(-c2ccc3cncn3c2)n1)c1ccn(C(F)F)n1` [Example 36, N4-[1-[1-(difluoromethyl)pyrazol-3-yl]-1-methyl-ethyl]-6-imidazo[1,5-a]pyridin-6-yl-1,3,5-triazine-2,4-diamine], for which the IC50 was 4.47e-08 M. On the same count and under the same terms, the result for `Cc1ncc2ccc(-c3nc(N)nc(NC(C)(C)c4ccn(C(F)F)n4)n3)cn12` [Example 37, N4-[1-[1-(difluoromethyl)pyrazol-3-yl]-1-methyl-ethyl]-6-(3-methylimidazo[1,5-a]pyridin-6-yl)-1,3,5-triazine-2,4-diamine] reads 3.55e-07 M. Same read-out and setting: as for `Cc1ncc2ccc(-c3nc(N)nc(NC(C)(C)c4cccc(F)c4F)n3)cn12` [Example 39, N4-[1-(2,3-difluorophenyl)-1-methyl-ethyl]-6-(3-methylimidazo[1,5-a]pyridin-6-yl)-1,3,5-triazine-2,4-diamine], the figure is 4.17e-07 M; as for `CN(CCc1cccc(Cl)c1Cl)c1nc(N)nc(-c2ccc3cn[nH]c3c2)n1` [Example 43, N4-[2-(2,3-dichlorophenyl)ethyl]-6-(1H-indazol-6-yl)-N4-methyl-1,3,5-triazine-2,4-diamine], 2.09e-06 M. Still for that read-out and setting: as for `Nc1nc(NCc2c(Cl)ccc(F)c2F)nc(-c2ccc3cn[nH]c3c2)n1` [Example 51, N2-[(6-chloro-2,3-difluoro-phenyl)methyl]-6-(1H-indazol-6-yl)-1,3,5-triazine-2,4-di amine], the figure is 1.48e-06 M; as for `Cc1cccc(CCNc2nc(N)nc(-c3ccc4cn[nH]c4c3)n2)n1` [Example 54, 6-(1H-indazol-6-yl)-N2-[2-(6-methyl-2-pyridyl)ethyl]-1,3,5-triazine-2,4-diamine], 1.66e-06 M; as for `CC(C)(Nc1nc(N)nc(-c2ccc3cn[nH]c3c2)n1)c1ccn(C(F)F)n1` [Example 60, N2-[1-[1-(difluoromethyl)pyrazol-3-yl]-1-methyl-ethyl]-6-(1H-indazol-6-yl)-1,3,5-tri azine-2,4-diamine], 3.47e-08 M. Take `Nc1nc(NCc2cccc(F)c2F)nc(-c2ccc3cn[nH]c3c2)n1` [Example 70, N2-[(2,3-difluorophenyl)methyl]-6-(1H-indazol-6-yl)-1,3,5-triazine-2,4-diamine]: the IC50 was 1.15e-07 M.

Consider `CC(C)(Nc1nc(N)nc(-c2ccc3cncn3c2)n1)c1ccccn1` [Example 72, 6-imidazo[1,5-a]pyridin-6-yl-N2-[1-methyl-1-(2-pyridyl)ethyl]-1,3,5-triazine-2,4-di amine], for which the IC50 is 4.07e-07 M. Regarding `Nc1nc(NCc2cccc(F)c2Cl)nc(-c2ccc3cncn3c2)n1` [Example 73, N2-[(2-chloro-3-fluoro-phenyl)methyl]-6-imidazo[1,5-a]pyridin-6-yl-1,3,5-triazine-2,4-diamine], the IC50 was 4.27e-07 M. The same measure, in the same setting: as for `Nc1nc(NCc2ccn(C(F)F)n2)nc(-c2ccc3cncn3c2)n1` [Example 74, N2-[[1-(difluoromethyl)pyrazol-3-yl]methyl]-6-imidazo[1,5-a]pyridin-6-yl-1,3,5-tria zine-2,4-diaminediamine], the figure is 4.9e-07 M; as for `Nc1nc(NC2(c3ccn(C(F)F)n3)CCC2)nc(-c2ccc3cn[nH]c3c2)n1` [Example 81, N2-[1-[1-(Difluoromethyl)pyrazol-3-yl]cyclobutyl]-6-(1H-indazol-6-yl)-1,3,5-tria zine-2,4-diamine], 2.14e-07 M.

For `Cn1ncc2ccc(-c3nc(N)nc(NC4(c5ccn(C(F)F)n5)CCC4)n3)cc21` [Example 82, N4-[1-[1-(Difluoromethyl)pyrazol-3-yl]cyclobutyl]-6-(1-methylindazol-6-yl)-1,3,5-triazine-2,4-diamine], the IC50 is 2.4e-06 M. The same measure, in the same setting: the result for `Nc1nc(NC2(c3nn(C(F)F)cc3Cl)CC2)nc(-c2ccc3cn[nH]c3c2)n1` [Example 84, N4-[1-[4-chloro-1-(difluoromethyl)pyrazol-3-yl]cyclopropyl]-6-(1H-indazol-6-yl)-1,3,5-triazine-2,4-diamine] reads 6.46e-07 M; that for `COc1cccc(CNc2nc(N)nc(-c3ccc4cn[nH]c4c3)n2)c1F` [Example 85, N2-[(2-Fluoro-3-methoxy-phenyl)methyl]-6-(1H-indazol-6-yl)-1,3,5-triazine-2,4-diamine], 1.58e-06 M. With `Nc1nc(NC2(c3c[nH]cn3)CC2)nc(-c2ccc3cn[nH]c3c2)n1` [Example 86, N2-[1-(1H-Imidazol-4-yl)cyclopropyl]-6-(1H-indazol-6-yl)-1,3,5-triazine-2,4-dia mine; 2,2,2-trifluoroacetate], the IC50 was 1e-05 M. Turning to `Cc1ccc(CNc2nc(N)nc(-c3ccc4cn[nH]c4c3)n2)c(F)c1F` [Example 88, N2-[(2,3-Difluoro-4-methyl-phenyl)methyl]-6-(1H-indazol-6-yl)-1,3,5-triazine-2,4-diamine], the IC50 was 1.29e-06 M.

As for `Nc1nc(NC2COc3cc(F)ccc32)nc(-c2ccc3cn[nH]c3c2)n1` (stereo not drawn) [Example 89, N2-(6-fluoro-2,3-dihydrobenzofuran-3-yl)-6-(1H-indazol-6-yl)-1,3,5-triazine-2,4-diamine], the IC50 is 8.51e-07 M. Still for that read-out and setting: the result for `Nc1nc(NC2COc3cc(F)cc(F)c32)nc(-c2ccc3cn[nH]c3c2)n1` (stereo not drawn) [Example 90, N2-(4,6-Difluoro-2,3-dihydrobenzofuran-3-yl)-6-(1H-indazol-6-yl)-1,3,5-triazine-2,4-diamine] reads 1.55e-06 M.

As to `Cn1ncc2ccc(-c3nc(N)nc(NC(C)(C)c4nn(C(F)F)cc4Cl)n3)cc21` [Example 97, N4-[1-[4-chloro-1-(difluoromethyl)pyrazol-3-yl]-1-methyl-ethyl]-6-(1-methylindazol-6-yl)-1,3,5-triazine-2,4-diamine], the IC50 is 7.94e-07 M.

Still in this assay, the particulars now being: Homo sapiens, HeLa, 144 h, read-out: HeLa pIC50 (M) (converted).
For the compound `Nc1nc(NC2(c3cccc(C(F)(F)F)n3)CC2)nc(-c2ccc3cn[nH]c3c2)n1` [Example 1, 6-(1H-indazol-6-yl)-N2-[1-[6-(trifluoromethyl)-2-pyridyl]cyclopropyl]-1,3,5-triazine-2,4-diamine hydrochloride], the IC50 was 1.07e-06 M.

For the compound `Nc1nc(-c2ccc3cn[nH]c3c2)nc(N2CCOCC2Cc2cccc(Cl)c2Cl)n1` (stereo not drawn) [Example 3, 4-[3-[(2,3-dichlorophenyl)methyl]morpholin-4-yl]-6-(1H-indazol-6-yl)-1,3,5-triaz in-2-amine hydrochloride], the IC50 is 2.95e-06 M. Consider `CC(C)(Nc1nc(N)nc(-c2ccc3cn[nH]c3c2)n1)c1cccc(C(F)(F)F)n1` [Example 4, 6-(1H-indazol-6-yl)-N2-[1-methyl-1-[6-(trifluoromethyl)-2-pyridyl]ethyl]-1,3,5-tr iazine-2,4-diamine hydrochloride], for which the IC50 is 1.7e-07 M.

For the compound `CC(C)(Nc1nc(N)nc(-c2ccc3cn[nH]c3c2)n1)c1ccccn1` [Example 12, 6-(1H-indazol-6-yl)-N2-[1-methyl-1-(2-pyridyl)ethyl]-1,3,5-triazine-2,4-diamine hydrochloride], the IC50 is 1.74e-07 M. Consider `CC(C)(Nc1nc(N)nc(-c2ccc3cn[nH]c3c2)n1)c1ccn(CCN2CCCC2)n1` [Example 83, 6-(1H-Indazol-6-yl)-N2-[1-methyl-1-[1-(2-pyrrolidin-1-ylethyl)pyrazol-3-yl]ethyl]-1,3,5-triazine-2,4-diamine hydrochloride], for which the IC50 was 7.08e-07 M.
